Experimental data published in patent US20170188606A1, “COMPOUNDS, COMPOSITIONS, AND METHODS FOR REDUCING OR E[…] TASTE” (Chromocell Corporation, priority 2014, published 2017).

Experiments:
[1] = test system: bitter taste of Orange VitaminWater (Stevia Leaf Extract, rebaudioside A); test: Descriptive analysis (DA) panel taste test, Orange VitaminWater
[2] = test system: sweetness perception; test: Inherent sweetness assessment using 2-AFC method vs 1.5% sucrose; format: in vivo, human; settings: for % correct: % needed 67%; for x (choosing Sample 1 as sweeter): n 36
Method: Sucrose solutions were prepared by adding sucrose to water to achieve the desired concentrations. Compounds were first prepared as 250-fold concentrated stocks in a 50% ethanol (200 proof), 50% water solution. These concentrated stocks were then diluted in water to achieve a final ethanol concentration of 0.2%. The control solutions were also normalized to 0.2% ethanol.
Compound 1 was evaluated in an aqueous solution for sweetness perception in a 2-AFC test. This test was a double-blinded, randomized study where taste panelists evaluate a pair of solutions one at a time for sweetness. Panelists were instructed not to eat or drink (except water) for at least one hour before the test. During the test, panelists were instructed to sip each sample, swirl it around their mouth and then expectorate. After tasting each sample in the pair, panelists were instructed to record the sample that is “sweeter” in taste. Panelists cleansed their palates by rinsing with water, eating a cracker and waiting for an interval of about 5 minutes. Each pair was tasted twice. All samples were tasted at ambient temperatures. Compound 1 (at various concentrations) was evaluated in comparison to the control, 1.5% sucrose. The flavor and extract manufacturers association (FEMA) characterizes any compound that has a sweetness intensity greater than that of 1.5% in a water base as inherently sweet.
Control Sample (Sample 1): 1.5% sucrose in water
Test Samples (Sample 2): • 10 μg/mL (10 ppm) Compound 1 in 0.2% ethanol in water • 2 μg/mL (2 ppm) Compound 1 in 0.2% ethanol in water • 0.5 μg/mL (500 ppb) Compound 1 in 0.2% ethanol in water
Eighteen subjects completed two replicates of a 2-AFC test for sweetness. Thirty three responses indicated the Control Sample was sweeter for each of the test samples evaluated. Three responses indicated the Test Sample was sweeter for each of the test samples evaluated. Using a beta binomial distribution, p=0.000 (two-sided alternative).

[3] = test system: bitter taste in grape-flavored cough syrup (Robitussin Cough and Cold CF); test: Cough syrup 2-AFC analysis (Example 3); format: in vivo, Humans; settings: 0.1 ppm in cough syrup; testers n=7
Method: (§1) Compound 1 was screened for a reduction of bitter taste due to a bitter tastant in children's grape flavored cough syrup (Robitussin Cough and Cold CF™, Lot #: R10494, Exp. 07/15). Compound 1 was solubilized in […] (PG), dosed into the cough syrup, and placed in 3 mL amounts in sample vials. Control samples contained an equal amount of PG to samples containing Compound 1. Testers (n=7) were asked to use a plastic transfer pipette for tasting, rinsing with water between samples and choosing the less bitter sample via the two alternative forced choice (2-AFC) method.

[4] = test system: bitter taste receptor (T2R); settings: Compound 1 3.2 mM in the absence of rebaudioside A; vs vehicle control
Method: Both the rebaudioside A and Compound 1 solutions were prepared in a standard HEPES buffer solution. Rebaudioside A was evaluated at a concentration of 825 μM and Compound 1 was evaluated at 3.2 mM (in the presence and absence of 825 μM rebaudioside A) and compared to vehicle control (HEPES buffer solution). Cells were incubated with a calcium responsive dye for one hour at 37 C and then exposed to rebaudioside A, Compound 1 (in the presence and absence of 825 μM rebaudioside A) and vehicle control. Change in fluorescence prior to compound addition and after compound addition was monitored for five minutes using a Hamamatsu Functional Drug Screening System (FDSS) 6000. The difference in fluorescence response over vehicle control was calculated using maximal cellular responses for each compound.

[5] = test system: bitterness of 500 ppm RebA; test: Discrimination testing with sureness (Latin square 2-AFC) and R-index analysis, aqueous RebA; format: in vivo, Humans; settings: 5 ppm in 500 ppm RebA, Discrim. Sureness, N 34, vs control
Description: The discrimination testing with sureness extends the simple yes/no task of discrimination test in a signal detection procedure to include a sureness rating scale. The discrimination test principle is based on two alternative forced choice (2-AFC) manner, in this methodology, panelists are presented with multiple samples, in which one sample is a control, and the other sampled are test variants. A blind control is included in the test variants along with a known control. Panelists are asked to first discriminate between the known control and a variant by identifying which the sample is less bitter. Second, panelists rate their sureness of their response (e.g., sure, unsure, or guess).
To minimize bias and prevent panelist expectation of sample order, a Latin square randomization design is utilized. The samples within a set will be randomized and the sets are randomized via Latin square. The number of presentations is equally distributed. Each of the test samples is evaluated against a negative control sample to calculate R-index score and associated p-value. […] R-index is utilized to indicate the degree of difference between the test and the control sample. […]
The blocker candidates were evaluated in a “sip and spit” format using this methodology and analysis and were the results of at least 30 observations (e.g., 15 panelists and 2 replications or 10 panelists 3 replications).

[6] = test system: bitter taste in grape-flavored cough syrup (Robitussin Cough and Cold CF); test: Cough syrup 2-AFC analysis with 50 ppb and 100 ppb (Example 4); format: in vivo, Humans; settings: for Cmpd. Chosen Overall: chosen as less bitter, n=11
Method: as §1, with “2.5” for “3”, “vials to afford 50 ppb or 100 ppb Compound 1 in the samples.” for “vials.”, “(n=11)” for “(n=7)”

[7] = test system: bitter taste of rebaudioside A; test: Descriptive analysis (DA) panel taste test, aqueous rebaudioside A
[8] = Panel A, Orange Vitamin Water Zero + Compound 1 @5 ppm, 15 cm scale
[9] = Panel B, fully solubilized, Orange VitaminWater (head: 500 ppm Reb-A) + Compound1 @0.25 ppm, 0.2% ethanol
[10] = Compound 1 @ 0.5 μg/mL in water vs 1.5% sucrose
[11] = Compound 1 @ 2 μg/mL in water vs 1.5% sucrose
[12] = Compound 1 @ 10 μg/mL in water vs 1.5% sucrose
[13] = Panel A, 500 ppm RebA + Compound 1 @7.5 ppm in water, 15 cm scale
[14] = Panel B, fully solubilized, 500 ppm Reb-A + Compound 1 @0.3 ppm, aqueous, 0.2% ethanol

Structure (SMILES): CN[C@@H](Cc1c[nH]c2ccccc12)C(=O)O [Compound 1, N-methyl-L-tryptophan]
- Bit Aft [1, 8]: 2.94
- Bitter [1, 8]: 4.97
- HPB [1, 8]: 6.83
- Licorice [1, 8]: 2.74
- Swt Aft [1, 8]: 3.89
- Swt Linger [1, 8]: 1.99
- Bitter [1, 9]: 3.9
- HPB [1, 9]: 5.4
- d′ [2, 10]: 1.956
- % correct [2, 10]: 92%
- x (choosing Sample 1 as sweeter) [2, 10]: 33
- d′ [2, 11]: 1.956
- % correct [2, 11]: 92%
- x (choosing Sample 1 as sweeter) [2, 11]: 33
- d′ [2, 12]: 1.956
- % correct [2, 12]: 92%
- x (choosing Sample 1 as sweeter) [2, 12]: 33
- inherent sweetness ([2]; concentrations up to 10 μg/mL (10 ppm), 0.2% ethanol in water, vs 1.5% sucrose): do not elicit inherent sweetness
- Compound Chosen as Less Bitter [3]: 5
- Control Chosen as Less Bitter [3]: 1
- No Choice Made [3]: 1
- fluorescent response from Compound 1 on its own [4]: not significantly different from vehicle control
- R-index [5]: 63.3%
- Chosen if 1st in Pair ([6]; 50 ppb in cough syrup): 5/6
- Chosen if 2nd in Pair ([6]; 50 ppb in cough syrup): 2/5
- Chosen in 1st Pair ([6]; 50 ppb in cough syrup): 5/6
- Chosen in 2nd Pair ([6]; 50 ppb in cough syrup): 2/5
- Cmpd. Chosen Overall ([6]; 50 ppb in cough syrup): 7/11
- Chosen if 1st in Pair ([6]; 100 ppb in cough syrup): 4/5
- Chosen if 2nd in Pair ([6]; 100 ppb in cough syrup): 3/6
- Chosen in 1st Pair ([6]; 100 ppb in cough syrup): 3/5
- Chosen in 2nd Pair ([6]; 100 ppb in cough syrup): 4/6
- Cmpd. Chosen Overall ([6]; 100 ppb in cough syrup): 7/11
- Bitter [7, 13]: 5.32
- Bitter Aft [7, 13]: 3.18
- HPB [7, 13]: 7.70
- Licorice [7, 13]: 6.58
- Sweet Aft [7, 13]: 4.71
- Sweet Linger [7, 13]: 2.55
- Bitter [7, 14]: 3.4
- Bitter Aft [7, 14]: 1.6
- HPB [7, 14]: 5
